Laboratory results published in patent publication US9932368B2, “Peptides for the stimulation of collagen formation” (INFINITEC ACTIVOS S.L, priority 2013, dated 2018).
The star is where a group is joined. Palmitoyl = CCCCCCCCCCCCCCCC(=O)*

Test system: type I collagen
Experiment: Determination of collagen biosynthesis (type I collagen ELISA), single peptides and mixture, Example 10
Type: cell-based, human
Conditions: 20, 40 and 80 μg/ml, 72 hours; ELISA O.D. 450 nm; vs untreated cells
Procedure: Human Dermal Fibroblasts (ATCC PCS-201-012) were seeded in 96-well plates (3000 cells per well), and left to grow in DMEM containing 5% fetal bovine serum (FBS) for 48 hours. The medium was then replaced with fresh medium containing 0.1% FBS and the corresponding treatment for determining collagen production. After the incubation with each of the peptides (1, 2, and 3) and the mixture of peptides 1-3 synthesized in Example 1, at different concentrations (20, 40 and 80 μg/ml) of each peptide dissolved in DMEM medium in an equivalent proportion of each of them in the mixture (1:1:1 w/w/w), for a period of 72 hours, the same amounts of supernatant were added to a plate coated with human type I collagen antibody (commercial rabbit polyclonal antibodies against human collagen I, code A03C0377, provided by Bluegene Biotech Co. Ltd). The plate was incubated at room temperature for 2 hours to allow the antibody and the produced collagen to react with one another. The plate was then washed three times with PBS containing 0.5% Tween 20 for removing the remaining unbound sample. Next, a human antibody which recognizes the biotin-labeled type I collagen was added for 1 hour. After washing the plate with phosphate buffered saline (PBS) containing 0.5% Tween 20 for removing non-specific interactions, streptavidin-horseradish peroxidase (HRP) (St Louis, Sigma) was added. The amount of collagen in each well was determined using tetramethylbenzidine (TMB) (St Louis, Sigma) as the substrate for the HRP. The reaction between the HRP and TMB was stopped by adding 1 N HCl, and the O.D. (optical density) was measured at 450 nm. The untreated cells represented the negative control of the experiment.

| Substance | induction of type I collagen |
| --- | --- |
| Palm-RGDGANPNAAG-NH2 (Palmitoyl-RGDGANPNAAG-NH2; SMILES CCCCCCCCCCCCCCCC(=O)N[C@@H](CCCNC(=N)N)C(=O)NCC(=O)N[C@@H](CC(=O)O)C(=O)NCC(=O)N[C@@H](C)C(=O)N[C@@H](CC(N)=O)C(=O)N1CCC[C@H]1C(=O)N[C@@H](CC(N)=O)C(=O)N[C@@H](C)C(=O)N[C@@H](C)C(=O)NCC(N)=O) [Peptide 1] | capable of inducing type I collagen production |
| Palm-WRFQWQFEQ-NH2 (Palmitoyl-WRFQWQFEQ-NH2; SMILES CCCCCCCCCCCCCCCC(=O)N[C@@H](Cc1c[nH]c2ccccc12)C(=O)N[C@@H](CCCNC(=N)N)C(=O)N[C@@H](Cc1ccccc1)C(=O)N[C@@H](CCC(N)=O)C(=O)N[C@@H](Cc1c[nH]c2ccccc12)C(=O)N[C@@H](CCC(N)=O)C(=O)N[C@@H](Cc1ccccc1)C(=O)N[C@@H](CCC(=O)O)C(=O)N[C@@H](CCC(N)=O)C(N)=O) [Peptide 3] | capable of inducing type I collagen production |
| Palm-RGDGPQGPQ-NH2 (Palmitoyl-RGDGPQGPQ-NH2; SMILES CCCCCCCCCCCCCCCC(=O)N[C@@H](CCCNC(=N)N)C(=O)NCC(=O)N[C@@H](CC(=O)O)C(=O)NCC(=O)N1CCC[C@H]1C(=O)N[C@@H](CCC(N)=O)C(=O)NCC(=O)N1CCC[C@H]1C(=O)N[C@@H](CCC(N)=O)C(N)=O) [Peptide 2] | capable of inducing type I collagen production |
